Measured values as given in PubChem BioAssay (NCI).
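Five compound concentrations were applied to cells in 96-well plates for 48 hours; endpoints were derived by simple linear interpolation of the resulting dose-response curve. GI50: concentration for 50% inhibition of growth. TGI denotes the concentration required for complete inhibition of growth.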

Legend:
Assay in all cases: NCI tumour cell line growth inhibition, 48 h
[1] = test system: SN12C renal
[2] = test system: LOX IMVI melanoma
[3] = test system: K-562 leukemia
[4] = test system: DU-145 prostate
[5] = test system: SF-295 CNS
[6] = test system: MDA-MB-231 breast
[7] = test system: NCI/ADR-RES ovarian
[8] = test system: SW-620 colon
[9] = test system: DMS 114 small cell lung
[10] = test system: M19-MEL melanoma
[11] = test system: DMS 273 small cell lung
[12] = test system: SNB-78 CNS

COc1cc(S(=O)(=O)Nc2nc(-c3ccc(N4C(=O)/C(=C/c5ccccc5[N+](=O)[O-])N=C4c4ccccc4)cc3)cs2)ccc1Cl
TGI [1]: > 100 µM
TGI [2]: > 100 µM
TGI [3]: > 100 µM
TGI [4]: > 100 µM
TGI [5]: > 100 µM
TGI [6]: 42.2 µM
TGI [7]: > 100 µM
TGI [8]: > 100 µM

Cl/C(=C\C=Nc1ccc(I)cc1)c1ccc2ccccc2c1
TGI [1]: 40.6 µM
TGI [2]: 30.9 µM
TGI [3]: 31.8 µM
TGI [4]: > 61.4 µM
TGI [5]: 51.3 µM
TGI [6]: 36 µM
TGI [7]: 32.5 µM
TGI [8]: 68.6 µM

COC(=O)Nc1nc2ccc(NC(=O)c3cccs3)cc2[nH]1
TGI [1]: > 100 µM
TGI [2]: > 100 µM
TGI [3]: > 100 µM
TGI [4]: > 100 µM
TGI [5]: > 100 µM
TGI [6]: > 100 µM
TGI [7]: 55.4 µM
TGI [8]: > 100 µM

CC(C)(C)OC(=O)NC1CCC(C(C)(C)C)CC1 (stereo unspecified)
TGI [1]: > 100 µM
TGI [9]: > 100 µM
TGI [10]: > 86.7 µM
TGI [11]: 99.2 µM
TGI [2]: > 100 µM
TGI [12]: > 100 µM
TGI [3]: > 100 µM
TGI [5]: > 55.3 µM
TGI [7]: > 100 µM
TGI [8]: > 100 µM

C[C@]12CC[C@H](O)CC1=CC[C@@H]1[C@@H]2CC[C@]2(C)C(=N/O)/C(=C/c3ccc([N+](=O)[O-])cc3)C[C@@H]12
TGI [1]: 7.14 µM
TGI [2]: 21.5 µM
TGI [3]: 59.9 µM
TGI [4]: 21.6 µM
TGI [5]: 10.7 µM
TGI [7]: 25.9 µM
TGI [8]: > 100 µM

CCCC(=O)O.CCCC(=O)O.CCCC(=O)O.CCCC(=O)O.[Rh].[Rh]
GI50 [2]: 0.104 µM
TGI [2]: 0.225 µM
GI50 [3]: 0.026 µM
TGI [3]: 0.273 µM
GI50 [4]: 0.181 µM
TGI [4]: 0.491 µM
GI50 [6]: 0.0322 µM
TGI [6]: 0.108 µM
GI50 [7]: 0.185 µM
TGI [7]: 0.589 µM
GI50 [8]: 0.0188 µM
TGI [8]: 0.0405 µM

CC(=O)NNC(=O)C1CCCCN1 (stereo unspecified)
TGI [1]: > 100 µM
TGI [2]: > 100 µM
TGI [3]: > 100 µM
TGI [4]: > 100 µM
TGI [5]: > 100 µM
TGI [6]: > 100 µM
TGI [8]: > 100 µM

C=CCSSCC=C
TGI [1]: > 86.9 µM
TGI [2]: > 38.6 µM
TGI [3]: > 100 µM
TGI [4]: > 100 µM
TGI [5]: > 100 µM
TGI [6]: > 100 µM
TGI [7]: > 73.2 µM
TGI [8]: > 100 µM

C=C1C(=O)OC2CC1CCC1(C)OC1CCC(C)=CCCC2(C)O (stereo unspecified)
TGI [1]: 11.6 µM
TGI [9]: 9.27 µM
TGI [10]: 11.8 µM
TGI [11]: 9.89 µM
TGI [2]: 8.71 µM
TGI [12]: 26.3 µM
TGI [3]: 13.7 µM
TGI [5]: 33.8 µM
TGI [7]: 5.84 µM
TGI [8]: 3.82 µM

O=C1OCc2cc3cc4c(cc3c(-c3ccc5c(c3)OCO5)c21)OCO4 (tested in a mixture with another compound)
TGI [1]: > 100 µM
TGI [2]: > 100 µM
TGI [3]: > 100 µM
TGI [4]: 55.2 µM
TGI [5]: 31.4 µM
TGI [6]: 15.6 µM
TGI [7]: > 100 µM
TGI [8]: > 100 µM

CN1CC(CNC(=O)OCc2ccccc2)CC2c3cccc4c3c(cn4C)CC21 (stereo unspecified)
GI50 [1]: 2.86 µM
TGI [1]: 11.3 µM
GI50 [2]: 1.64 µM
TGI [2]: 3.21 µM
GI50 [3]: 1.69 µM
TGI [3]: 4.44 µM
GI50 [4]: 3.88 µM
TGI [4]: 14.4 µM
GI50 [5]: 2.09 µM
TGI [5]: 4.76 µM
GI50 [6]: 1.65 µM
TGI [6]: 3.28 µM
GI50 [7]: 1.82 µM
TGI [7]: 4.49 µM
GI50 [8]: 1.59 µM
TGI [8]: 3.12 µM

Br/C(=N\Nc1nn[nH]n1)c1ccncc1
TGI [1]: > 100 µM
TGI [2]: > 100 µM
TGI [3]: > 100 µM
TGI [4]: > 100 µM
TGI [5]: > 100 µM
TGI [6]: > 100 µM
TGI [7]: > 100 µM
TGI [8]: > 100 µM

O=C(Nc1ccc(Cl)c(Cl)c1)N1N=C2c3ccccc3CCC2C1c1ccc(Cl)cc1 (stereo unspecified)
TGI [1]: > 100 µM
TGI [2]: > 100 µM
TGI [3]: > 100 µM
TGI [4]: > 100 µM
TGI [5]: > 100 µM
TGI [6]: > 100 µM
TGI [7]: > 100 µM
TGI [8]: > 100 µM

O=C(COc1ccc(Cl)c(Cl)c1)N(Cc1ccccc1)Cc1ccc[n+](Cc2ccc(Cl)cc2S(=O)(=O)F)c1
TGI [1]: > 100 µM
TGI [3]: > 100 µM
TGI [4]: > 100 µM
TGI [5]: > 100 µM
TGI [6]: 31.9 µM
TGI [7]: > 100 µM
TGI [8]: > 100 µM

O=C(Oc1ccc(Cl)cc1[N+](=O)[O-])c1ccccc1
TGI [1]: > 100 µM
TGI [9]: > 100 µM
TGI [10]: > 100 µM
TGI [11]: > 100 µM
TGI [2]: > 100 µM
TGI [12]: > 100 µM
TGI [3]: > 100 µM
TGI [5]: > 100 µM
TGI [8]: > 100 µM

O=C1CCCC2C3CC(CN12)C1CCCCN1C3 (stereo unspecified)
TGI [1]: > 100 µM
TGI [2]: > 100 µM
TGI [4]: > 100 µM
TGI [5]: > 100 µM
TGI [6]: > 100 µM
TGI [7]: > 100 µM
TGI [8]: > 100 µM

Cc1cc(C)nc(SCCc2cccc[n+]2C)n1
TGI [1]: > 100 µM
TGI [2]: > 100 µM
TGI [3]: > 100 µM
TGI [4]: > 100 µM
TGI [5]: > 100 µM
TGI [6]: > 100 µM
TGI [7]: > 100 µM
TGI [8]: > 100 µM

O=C1C(Cl)C(c2cc3cc(Br)ccc3nc2Cl)N1c1ccc(Cl)cc1 (stereo unspecified)
TGI [1]: 8.8 µM
TGI [2]: 3.38 µM
TGI [3]: 19.8 µM
TGI [4]: 19.7 µM
TGI [5]: > 25 µM
TGI [6]: 7.35 µM
TGI [7]: 16.7 µM
TGI [8]: > 25 µM

COc1c(OC/C=C(\C)CCC=C(C)C)ccc2ccc(=O)oc12
TGI [1]: > 100 µM
TGI [2]: > 100 µM
TGI [3]: > 100 µM
TGI [4]: > 100 µM
TGI [5]: > 100 µM
TGI [6]: > 100 µM
TGI [7]: > 100 µM
TGI [8]: > 100 µM

CC(C)(C)c1ccc(/C=N/NC(=O)CSCC(=O)N/N=C/c2ccc(C(C)(C)C)cc2)cc1
TGI [1]: 4.82 µM
TGI [3]: 6.7 µM
TGI [4]: > 100 µM
TGI [6]: 2.43 µM
TGI [7]: 15.5 µM
TGI [8]: 6.11 µM

CC[C@]12C=CCN3CC[C@@]4(c5cc(Br)c(OC)cc5N(C)[C@H]4[C@@](O)(C(=O)N[C@@H](Cc4ccc(O)cc4)C(=O)OC)[C@@H]1O)[C@@H]32
TGI [1]: 37.9 µM
TGI [2]: 34.8 µM
TGI [3]: > 100 µM
TGI [4]: > 100 µM
TGI [5]: 38.7 µM
TGI [6]: 30.6 µM
TGI [7]: 62.3 µM
TGI [8]: > 100 µM

COc1ccc(OC)c(CC(C)N)c1 (stereo unspecified)
TGI [1]: > 100 µM
TGI [9]: > 100 µM
TGI [10]: > 100 µM
TGI [2]: > 100 µM
TGI [3]: > 100 µM
TGI [5]: > 100 µM
TGI [8]: > 100 µM
